According to patent US20250122181A1, “BENZIMIDAZOLES AS MODULATORS OF IL-17” (Janssen Pharmaceutica NV, priority 2021, published 2025):

Columns and labels:
[1] = biological target: IL-17A(FLAG-Tagged): IL-17RA(His-Tagged) (Homo sapiens, UniProt Q16552, K93Q); assay: IL-17A(FLAG-Tagged): IL-17RA(His-Tagged) Binding Disruption Eu-HTRF Assay, Protocol 1; settings: Protocol 1, FLAG tagged IL-17A 2.5 nM; simple average if tested more than once
Source text: An antibody directed against the FLAG tag of IL-17A (SEQ ID NO: 1) is labeled with the HTRF donor chromophore (Europium-cryptate). IL-17A is present as a dimer that is “locked into” this quaternary structure due to the formation of loop-spanning […] disulfide bridges. The construct of IL-17RA used in the assay excludes the […] portion of the receptor and is fused to a C-terminal 10×His tag (SEQ ID NO:2). An antibody directed against the His tag of the IL-17RA chimera is labeled with the HTRF acceptor chromophore (“D2”). The fluorescence-resonance energy transfer (FRET) depends on the vicinity of the donor chromophore to the acceptor, and interruption of the binding between the IL-17A and IL-17RA causes the reduction/loss of FRET. Therefore, this assay allows to evaluate the compound effect on the binding IL-17A and IL-17RA by monitoring the fluorescence intensity of donor vs acceptor. The assay was run using either Protocol 1 or Protocol 2 as described below.
Protocol 1. 40 nl of 2-fold serial diluted compound solution for total 22 dilution points is added into each well of a 1536-well, white, low-volume, non-binding plate (Greiner #782904), then 2 μl of FLAG tagged IL-17A at 2× final concentration (2.5 nM) in solution of PBS+0.01% Triton-X100 is added to each well. The assay plate is briefly centrifuged then incubated for 1 h at rt. A mixed solution is prepared containing 2×5 nM 10HIS×IL-17RA, 2×2.5 nM Eu-anti-FLAG (CISBIO), 2×5 nM D2-anti-HIS (CISBIO) in PBS+0.01% Triton-X100+200 mM Potassium Fluoride (Sigma 60238) and 2 μl of mix is added to each well of the assay plate. The plate is briefly centrifuged then incubated for 2 h at rt. The HTRF intensities at the wavelength of donor (620 nm) and acceptor (665 nm) are measured using BMG Pherastar. The ratio between intensities at two wavelengths is calculated and plotted against the compound concentration and the data is fitted to a one-site competition model to yield IC50 of the compound.

[2] = test system: IL-17A-induced G-CSF production in human normal keratinocyte (NHK); assay: NHK Assay: IL-17A-induced G-CSF production in human normal keratinocyte; format: cell-based; settings: Homo sapiens, Keratinocyte, 24 h, IL-17A 5 ng/mL, simple average if tested more than once
In short: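 Stimulus rhIL-17A 5 ng/mL final, premixed 1 h rt with compound; adult NHK, 5% FBS, 0.2% DMSO. Viability by CellTiter-Glo vs DMSO.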

Sequence of UniProt Q16552 (Q16552 with tags, fused parts or gaps K93Q): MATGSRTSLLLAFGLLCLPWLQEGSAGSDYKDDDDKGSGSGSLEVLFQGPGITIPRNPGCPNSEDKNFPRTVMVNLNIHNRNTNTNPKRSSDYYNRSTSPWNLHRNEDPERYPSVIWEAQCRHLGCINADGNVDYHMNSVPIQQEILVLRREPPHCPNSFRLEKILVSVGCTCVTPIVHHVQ

Compound | IC50 [1] [nM] | IC50 [2] [nM]
COC[C@H](c1ccc2[nH]c(C(COC(C)(C)C(F)(F)F)NC(=O)c3cnn(CC4CC4)n3)nc2c1)N1CC(F)(F)CNC1=O (single isomer, unassigned) [Example 51, 2-(Cyclopropylmethyl)-N—((R*)-1-(5-((S)-1-(5,5-difluoro-2-oxotetrahydropyrimidin-1(2H)-yl)-2-methoxyethyl)-1H-benzo[d]imidazol-2-yl)-2-((1,1,1-trifluoro-2-methylpropan-2-yl)oxy)ethyl)-2H-1,2,3-triazole-4-carboxamide] | < 50 | 50 to 100
CC(C)(OC[C@H](NC(=O)c1nonc1C1CC1)c1nc2cc([C@@H](C3CC3)N3C[C@@H](C(F)(F)F)NC3=O)ccc2[nH]1)C(F)(F)F [Example 1, 4-Cyclopropyl-N—((R)-1-(5-((R)-cyclopropyl((S)-2-oxo-4-(trifluoromethyl)imidazolidin-1-yl)methyl)-1H-benzo[d]imidazol-2-yl)-2-((1,1,1-trifluoro-2-methylpropan-2-yl)oxy)ethyl)-1,2,5-oxadiazole-3-carboxamide] | < 50 | < 50
[2H]C1([2H])[C@H](C(F)(F)F)NC(=O)N1[C@@H](c1ccc2[nH]c([C@@H](NC(=O)c3nonc3C)[C@@H](C)O[C@H](C)C(F)(F)F)nc2c1)C1CC1 (relative stereo) [Example 8, N-((1R*,2R)-1-(5-((R)-Cyclopropyl((R*)-2-oxo-4-(trifluoromethyl)imidazolidin-1-yl-5,5-d2)methyl)-1H-benzo[d]imidazol-2-yl)-2-(((R)-1,1,1-trifluoropropan-2-yl)oxy)propyl)-4-methyl-1,2,5-oxadiazole-3-carboxamide] | 50 to 100 | > 100
CC(C)(OC[C@H](NC(=O)c1nonc1C1CC1)c1nc2nc(CN3C[C@H](C(F)(F)F)NC3=O)ccc2[nH]1)C(F)(F)F (relative stereo) [Example 38, 4-Cyclopropyl-N—((R*)-1-(5-(((R*)-2-oxo-4-(trifluoromethyl)imidazolidin-1-yl)methyl)-1H-imidazo[4,5-b]pyridin-2-yl)-2-((1,1,1-trifluoro-2-methylpropan-2-yl)oxy)ethyl)-1,2,5-oxadiazole-3-carboxamide] | < 50 | < 50
Cc1nonc1C(=O)N[C@@H](COC(C)(C)C(F)(F)F)c1nc2cc([C@@H](C3CC3)N3CC(F)(F)CNC3=O)ccc2[nH]1 [Example 23, N—((R)-1-(5-((R)-Cyclopropyl(5,5-difluoro-2-oxotetrahydropyrimidin-1(2H)-yl)methyl)-1H-benzo[d]imidazol-2-yl)-2-((1,1,1-trifluoro-2-methylpropan-2-yl)oxy)ethyl)-4-methyl-1,2,5-oxadiazole-3-carboxamide] | < 50 | < 50
COC[C@H](c1ccc2[nH]c(C(COC(C)(C)C(F)(F)F)NC(=O)c3nonc3C3CC3)nc2c1)N1C[C@@H](C(F)(F)F)NC1=O (single isomer, unassigned) [Example 47, 4-Cyclopropyl-N—((R*)-1-(5-((S)-2-methoxy-1-((S)-2-oxo-4-(trifluoromethyl)imidazolidin-1-yl)ethyl)-1H-benzo[d]imidazol-2-yl)-2-((1,1,1-trifluoro-2-methylpropan-2-yl)oxy)ethyl)-1,2,5-oxadiazole-3-carboxamide] | < 50 | < 50
[2H]C1([2H])[C@@H](C(F)(F)F)NC(=O)N1[C@@H](c1ccc2[nH]c([C@@H](NC(=O)c3nonc3C)[C@@H](C)O[C@H](C)C(F)(F)F)nc2c1)C1CC1 (relative stereo) [Example 9, N-((1R*,2R)-1-(5-((R)-Cyclopropyl((S*)-2-oxo-4-(trifluoromethyl)imidazolidin-1-yl-5,5-d2)methyl)-1H-benzo[d]imidazol-2-yl)-2-(((R)-1,1,1-trifluoropropan-2-yl)oxy)propyl)-4-methyl-1,2,5-oxadiazole-3-carboxamide] | < 50 | < 50
Cc1nonc1C(=O)NC(COC(C)(C)C(F)(F)F)c1nc2nc([C@@H](C3CC3)N3CC(F)(F)CNC3=O)ccc2[nH]1 (single isomer, unassigned) [Example 18, N—((R*)-1-(5-((R)-Cyclopropyl(5,5-difluoro-2-oxotetrahydropyrimidin-1(2H)-yl)methyl)-1H-imidazo[4,5-b]pyridin-2-yl)-2-((1,1,1-trifluoro-2-methylpropan-2-yl)oxy)ethyl)-4-methyl-1,2,5-oxadiazole-3-carboxamide] | < 50 | 50 to 100

Now from value to compound, other results behind:

IC50 [1] [nM] | Compound | IC50 [2] [nM]
< 50 | CC(C)(OC[C@H](NC(=O)c1nonc1C1CC1)c1nc2cc([C@@H](C3CC3)N3CC(F)(F)CNC3=O)ccc2[nH]1)C(F)(F)F [Example 22, 4-Cyclopropyl-N—((R)-1-(5-((R)-cyclopropyl(5,5-difluoro-2-oxotetrahydropyrimidin-1(2H)-yl)methyl)-1H-benzo[d]imidazol-2-yl)-2-((1,1,1-trifluoro-2-methylpropan-2-yl)oxy)ethyl)-1,2,5-oxadiazole-3-carboxamide] | < 50
> 100 | CC(C)n1nccc1C(=O)N[C@@H](COC(C)(C)C(F)(F)F)c1nc2nc(CN3C[C@@H](C(F)(F)F)NC3=O)ccc2[nH]1 (relative stereo) [Example 37, 1-Isopropyl-N—((R*)-1-(5-(((S*)-2-oxo-4-(trifluoromethyl)imidazolidin-1-yl)methyl)-1H-imidazo[4,5-b]pyridin-2-yl)-2-((1,1,1-trifluoro-2-methylpropan-2-yl)oxy)ethyl)-1H-pyrazole-5-carboxamide] | > 100
< 50 | Cc1nonc1C(=O)NC(COC(C)(C)C(F)(F)F)c1nc2cc([C@@H](COC3CC3)N3CC(F)(F)CNC3=O)ccc2[nH]1 (single isomer, unassigned) [Example 56, N—((R*)-1-(5-((S)-2-Cyclopropoxy-1-(5,5-difluoro-2-oxotetrahydropyrimidin-1(2H)-yl)ethyl)-1H-benzo[d]imidazol-2-yl)-2-((1,1,1-trifluoro-2-methylpropan-2-yl)oxy)ethyl)-4-methyl-1,2,5-oxadiazole-3-carboxamide] | < 50
< 50 | CC(C)(OC[C@H](NC(=O)c1nonc1C1CC1)c1nc2ccc(CN3CC(F)(F)CNC3=O)cc2[nH]1)C(F)(F)F [Example 30, (R)-4-Cyclopropyl-N-(1-(6-((5,5-difluoro-2-oxotetrahydropyrimidin-1(2H)-yl)methyl)-1H-benzo[d]imidazol-2-yl)-2-((1,1,1-trifluoro-2-methylpropan-2-yl)oxy)ethyl)-1,2,5-oxadiazole-3-carboxamide] | < 50
< 50 | COC[C@H](c1ccc2[nH]c(C(NC(=O)c3nonc3C)[C@@H](C)O[C@H](C)C(F)(F)F)nc2n1)N1CC(F)(F)CNC1=O (single isomer, unassigned) [Example 21, N-((1R*,2R)-1-(5-((S)-1-(5,5-Difluoro-2-oxotetrahydropyrimidin-1(2H)-yl)-2-methoxyethyl)-1H-imidazo[4,5-b]pyridin-2-yl)-2-(((R)-1,1,1-trifluoropropan-2-yl)oxy)propyl)-4-methyl-1,2,5-oxadiazole-3-carboxamide] | < 50
< 50 | CC(C)(OC[C@H](NC(=O)c1nonc1C1CC1)c1nc2cc(CN3C[C@](C)(C(F)(F)F)NC3=O)ccc2[nH]1)C(F)(F)F (relative stereo) [Example 60, 4-Cyclopropyl-N—((R*)-1-(5-(((R*)-4-methyl-2-oxo-4-(trifluoromethyl)imidazolidin-1-yl)methyl)-1H-benzo[d]imidazol-2-yl)-2-((1,1,1-trifluoro-2-methylpropan-2-yl)oxy)ethyl)-1,2,5-oxadiazole-3-carboxamide] | < 50
< 50 | Cc1nonc1C(=O)NC(c1nc2cc([C@@H](C3CC3)N3C[C@@H](C(F)(F)F)NC3=O)ccc2[nH]1)[C@@H](C)O[C@@H](C)C(F)(F)F (single isomer, unassigned) [Example 13, N-((1R*,2R)-1-(5-((R)-Cyclopropyl((S)-2-oxo-4-(trifluoromethyl)imidazolidin-1-yl)methyl)-1H-benzo[d]imidazol-2-yl)-2-(((S)-1,1,1-trifluoropropan-2-yl)oxy)propyl)-4-methyl-1,2,5-oxadiazole-3-carboxamide] | < 50
